Where two headings read alike, the source gives them in different places. Ends that are not written are not given here.
Legend:
Assay type in all cases: cell-based, murine
[1] = system: Mfn2 T105M fl/st MEFs; experiment: TAT-minipeptides in MEFs expressing CMT2A mutant hMfn2 T105M; settings: for mitochondrial fragmentation / dysmorphology / mitochondrial polarization / depolarization: Mfn2 T105M MEFs, 72 hours after adeno-Cre, 1 μM
Method: Wild-type murine embryonic fibroblast cells (MEFs) were prepared from E10.5 C57/b6 mouse embryos. SV-40 T antigen-immortalized Mfn1 null (“Mfn1 KO,” ATCC No. CRL-2992), Mfn2 null (“Mfn2 KO,” ATCC No. CRL-2993) and Mfn1/Mfn2 double null MEFs (“Mfn DKO,” ATCC No. CRL-2994) were purchased from ATCC. MEFs conditionally expressing the human Mfn2 T105M mutation were prepared from E10.5 embryos of C57BL/6-Gt(ROSA)26Sor[tm1(CAG-MFN2*T105M)Dple]/J mice purchased from The Jackson Laboratory (Stock No: 025322). MEFs were maintained in DMEM containing 4.5 g/L glucose (or galactose when specified) supplemented with 10% fetal bovine serum, 1× nonessential amino acids, 2 mM L-glutamine, 100 U/ml penicillin and 100 μg/ml streptomycin.
Models cells harboring a Cre recombinase-inducible mutant human Mfn2 containing the T105M mutation were used (FIG. 13A) because they recapitulate fusion defects caused by compound functional null Mfn2 mutants in […] CMT2A. A time course study of mitochondrial fragmentation after adeno-Cre mediated induction of Mfn2 T105M was performed and the results are shown in FIG. 13B.
It was considered that mitochondrial dysmorphology created by genetic Mfn2 dysfunction in CMT2A might be improved by TAT-367-384Gly if endogenous normal Mfn1 or Mfn2 proteins could be compelled into their active unfolded conformations, thus overcoming dominant inhibition by GTPase Mfn2 mutants. This was tested in MEFs expressing the CMT2A-causal mutant hMfn2 T105M (Calvo et al., 2009, Arch Neurol, 66:1511-1516; Detmer et al., 2008, Hum Mol Genet, 17:367-375) as a conditional flox/stop (fl/st) transgene. […] Parallel adenoviral expression of WT Mfn2 at more than twice the levels of Mfn2 T105M (5-fold vs 2-fold) provoked neither mitochondrial nor cellular toxicity (data not shown). Scale bars are 10 microns. N=3 or 4; *=P<0.05 vs. control, #=P<0.05 vs. Ad-Cre (ANOVA).

[2] = system: Mfn1/Mfn2 DKO MEFs; experiment: Confocal localization of FITC-labeled TAT-minipeptides in mitofusin null cells; settings: MEFs completely lacking mitofusins
Method: The above results support the premise that TAT-conjugated Mfn2 minipeptides affect mitochondrial fusion by modulating Mfn1 and Mfn2 conformation according to the dynamic structure model depicted in FIGS. 3A-3C. Additional studies were performed to validate this mechanism of action using the minipeptide-Mfn2 binding assay procedure. Confocal localization of FITC-labeled TAT-minipeptides in WT MEFs and Mfn null MEFs (Mfn1/Mfn2 DKO) was used for analysis of interaction between the minipeptides and mitochondrial mitofusins. Mitochondria were stained with MitoTracker Orange; nucleus was stained with Blue Hoechst. Line-scans were generated for the confocal photographs.
Thus, cell-internalized TAT-conjugated Mfn2 HR1 minipeptides bind specifically to mitochondrial mitofusins.

[3] = system: WT MEFs; settings: for mitochondrial aspect ratio (effect of TAT fusion construct): WT MEFs, varying concentrations / time course; for EC50: mitochondrial aspect ratio dose response; for EC50 / half-time for mitochondrial shape change: MEFs; for half-time for mitochondrial shape change: time course
Method: MEFs or neurons were grown on chamber slides and infected with recombinant adenoviri for 48-72 hours unless otherwise indicated. MEFs were stained with MitoTracker Green (200 nM, Invitrogen M7514) and Blue Hoechst (10 mg/ml, Invitrogen H3570), with or without tetramethylrhodamine ethyl ester (TMRE; 200 nM, Invitrogen T-669). Neuronal mitochondria were labeled with adenoviral-expressed mitoGFP plus TMRE, or with adeno-mitoDsRed for time-lapse studies. Cover slips were loaded onto a chamber (Warner instrument, RC-40LP) in modified Krebs-Henseleit buffer (138 mM NaCl, 3.7 mM KCl, 1.2 mM KH2PO4, 15 mM Glucose, 20 mM HEPES and 1 mM CaCl2) at room temperature and visualized on a Nikon Ti Confocal microscope equipped with a 60×1.3 NA oil immersion objective. For mitophagy studies MEFs were stained with MitoTracker Green and infected with adeno-mcherry Parkin or stained with LysoTracker Deep Red (50 nM, Invitrogen L-7528); carbonylcyanide p-trifluoromethoxyphenylhydrazone (FCCP, 10 μM for 1 hour) was applied as a positive control. Mitochondrial fusion was measured at 2 and 6 hours after PEG-mediated cell fusion of MEFs treated 48 hours previously with adeno-mitoGFP or adeno-mitoDsRed (Chen et al., 2005, J Biol Chem, 280:26185-26192). Laser confocal fluorescence was excited with 561 nm (MitoTracker Green, GFP, FITC), 637 nm (TMRE, LysoTracker Red, mcherry-Parkin, MitoTracker Orange) or 408 nm (Blue Hoechst) laser diodes. Image analysis—Mitochondrial aspect ratio was calculated using automated edge detection and Image J software (Song et al., 2015, Cell Metab, 21:273-285). Mitochondrial depolarization was calculated as % of green mitochondria visualized on MitoTracker Green and TMRE merged images, expressed as green/(green+yellow mitochondria)×100. Parkin aggregation was calculated as % of cells with mitochondrial clumping of mcherry-Parkin (Song et al., 2015, Cell Metab, 21:273-285). Lysosomal engulfment of mitochondria was identified by colocalization of LysoTracker Red and MitoTracker Green (Song et al., 2015, Cell Metab, 21:273-285).
TAT47-57 is a well-characterized “carrier” peptide able to promote active cellular peptide uptake. Specifically, a linear peptide was constructed in which the hMfn2 modulatory peptide was linked by a peptide bond at its C-terminus to a Gly-Gly dipeptide linker whose C-terminus was linked by a peptide bond to the TAT47-57 peptide having the sequence YGRKKRRQRRR (SEQ ID NO:25). The resultant linear fusion-promoting peptide conjugate comprises the sequence […] (SEQ ID NO:23). The fusion-inhibiting linear peptide has the sequence […] (SEQ ID NO:24). Except for dose-response studies, stock concentrations of TAT-minipeptides in sterile water were applied to cultured MEFs at a dilution factor of 1:2000 to achieve final concentrations of 1 or 5 μM.
The functional consequences of the Mfn2 HR1-derived peptides were defined after synthesizing them as C-terminal TAT47-57 conjugates to promote active cellular uptake. Mitochondrial fusion can be detected by mixing of organellar contents (Chen et al., 2005, J Biol Chem, 280:26185-26192). […] (FIG. 8A, scale bar is 20 microns). Mitochondrial aspect ratio changed in parallel with mitochondrial mixing (FIG. 8B).
Experiments were performed with these shortened variants fused to a carrier peptide via a linker according to the methods described in Example 5 above. Wildtype MEFs were treated with varying concentrations of peptide fusion constructs described in Table 4 and mitochondrial aspect ratios determined. A dose response curve for TetherX-N and -C variants are shown in FIG. 17A (squares are data for TetherX-N and circles are for TetherX-C). The dose response curve for GoFuse-N and -C variants are shown in FIG. 17B (squares are for GoFuse-N and circles are for GoFuse-C).

QDRLKFIDKQGELLAQDYKLRGGYGRKKRRQRRR [TAT-398-418Gly]
mitochondrial fragmentation / dysmorphology [1]: aggravated mitochondrial dysmorphology | mitochondrial polarization / depolarization [1]: exacerbated mitochondrial depolarization | localization of FITC-labeled TAT-peptide to mitochondria [2]: not to MEFs completely lacking mitofusins | mitochondrial aspect ratio (effect of TAT fusion construct) [3]: decreased mitochondrial aspect ratio | EC50 ([3]; read-out: EC50 for mitochondrial shortening (suppressed fusion)): 250 ± 90 nM | half-time for mitochondrial shape change [3]: approximately 2 hours

QIAEAVRGIMDSLHMAARGGYGRKKRRQRRR [TAT-367-384Gly]
mitochondrial fragmentation / dysmorphology [1]: rapidly reversed mitochondrial fragmentation | mitochondrial polarization / depolarization [1]: improved mitochondrial polarization | mitochondrial clumping ([1]; cells expressing Mfn2 T105M): corrected mitochondrial clumping | localization of FITC-labeled TAT-peptide to mitochondria [2]: not to MEFs completely lacking mitofusins | mitochondrial aspect ratio (effect of TAT fusion construct) [3]: increased the mitochondrial aspect ratio | EC50 ([3]; read-out: EC50 for mitochondrial elongation (enhanced fusion)): 280 ± 90 nM | half-time for mitochondrial shape change [3]: approximately 2 hours

Reference: patent publication US10578610B2, “Peptide regulators of mitochondrial fusion and methods of use” (priority 2016, dated 2020)
